Data as given in PubChem BioAssay (NCI).
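Method: 48-hour compound exposure of cells in 96-well plates, five concentrations, linear interpolation of endpoints. Abbreviation: GI50, concentration required for 50% inhibition of growth. The concentration for full growth arrest is given as TGI.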

Tests used:
Assay in all cases: NCI tumour cell line growth inhibition, 48 h
[1] = system: P388/ADR leukemia
[2] = system: SN12K1 renal
[3] = system: P388 leukemia

| SMILES | TGI [1] | GI50 [2] | TGI [2] | TGI [3] |
| --- | --- | --- | --- | --- |
| CC1OC(O[C@@H]2C=C3CC[C@@H]4[C@H](CC[C@]5(C)[C@@H](c6ccc(=O)oc6)CC[C@]45O)[C@@]3(C)CC2)C(O)C(O)C1O (some centres not stated) | 159 µM | 0.000941 µM | 0.003 µM | > 74.8 µM |
| COc1cc([C@@H]2c3cc4c(cc3[C@@H](OC3OC5COC(C)OC5C(O)C3O)[C@H]3COC(=O)[C@H]23)OCO4)cc(OC)c1O (some centres not stated) | 411 µM |  | 66.6 µM | 9.88 µM |
